Results on three compounds are retold here after publication PMC5958115, “A novel small molecule chaperone of rod opsin and its potential therapy for retinal degeneration” (Nature Communications, 2018).

SMILES strings stand for the structures. Read-outs that look alike come from different tables or passages of the source.

One data set concerns the target T1, rod opsin (Mus musculus, UniProt P15409).
T1 construct: expressed in transfected cells
Kind of data set: cAMP quantification assay in NIH3T3-(WT-opsin/GFP) cells with forskolin. Format: cell-based. The procedure:
NIH3T3-(Opsin/GFP) and NIH3T3-(GFP) were plated in two 96-well plates at a density of 50,000 cells per well in 100 µL of DMEM medium containing 10% FBS and antibiotics. After 24 h, cells were washed with Krebs Ringer bicarbonate buffer containing glucose (KRBG), and incubated with KRBG buffer containing 100 µM cAMP specific phosphodiesterase inhibitor, Ro 20–1724 (Tocris, UK) at RT for 10 min. […] While one plate then was wrapped with aluminum foil, the second plate was exposed to regular room light. Both plates were kept in a cell culture incubator for 15 min at 37 °C in 5% CO2. Levels of accumulated cAMP were detected with the Catchpoint cAMP fluorescent assay kit (Molecular Devices, Sunnyvale, CA USA) and the fluorescence with excitation/emission at 530/590 nm was read with a Flexstation3 plate reader (Molecular Devices) as described in the manufacturer’s protocol.

In another data set the target is T2, bovine rod opsin (Bos taurus, UniProt P02699).
T2 construct: Constitutive activity of bovine opsin in disc membranes; from tissue; host or cells: bovine retina ROS membranes (opsin membranes and purified Gt)
Kind of data set: Gt activation assay (GTPγS-induced fluorescence change). Format: biochemical. The procedure:
Gt was extracted and purified from frozen bovine ROS membranes as described in Preparation of Opsin Membranes. The intrinsic increase in the fluorescence from Gtα was measured with a L55 luminescence spectrophotometer (PerkinElmer Life Sciences) using an excitation and emission wavelengths of 300 and 345 nm, respectively[39],[40]. […] DMSO-treated opsin membranes were used to obtain a baseline for the basal activity of opsin. The molar ratio of opsin to Gt was 1:10, with opsin at a concentration of 100 nM and Gt at 1000 nM. […] This step was followed by the addition of 300 μM GTPγS (Sigma-Aldrich) to determine the GTPγS-induced complex dissociation and corresponding fluorescence changes. Gt activation rates were determined and plotted for the first 100 s of the Gt activation assay[40],[67].

The target in the next data set is T3, bovine opsin (Bos taurus, UniProt P02699).
T3 construct: ROS membranes were isolated from bovine retinas under dim red light; from tissue; host or cells: bovine retina, rod outer segment (ROS) disc membranes, bleached with hydroxylamine
Description: Isorhodopsin pigment regeneration in ROS disc membranes (absorbance at 487 nm). Format: biochemical. Conditions: for competition with 9-cis-retinal in the chromophore-binding pocket: added simultaneously or sequentially with 9-cis-retinal. Here is the method:
ROS membranes containing opsin were suspended in buffer composed of 20 mM BTP, pH 7.5, and 100 mM NaCl at a final concentration of 2.5 µM. […] Membranes then were solubilized with 20 mM DDM for 10 min at RT and UV–visible spectra of these samples were measured. To follow the kinetics of isorhodopsin regeneration, opsin membranes were treated with 0, 20, or 60 µM YC-001 for 15 min at RT. […] UV–visible spectra of the samples were measured every 2 min until 2 h of reaction time at RT. Each condition was repeated three times. The time course of isorhodopsin regeneration was fitted by a second-order exponential decay and apparent half-lives were obtained at the time when reaction reached half of the end-point product.
Alternatively, opsin incubated with the above ligands was purified by 1D4-immunoaffinity chromatography. […] After washing, opsin samples were eluted by addition of 1D4 peptide ([…]) to the above buffer and their spectra were measured with a UV–visible spectrophotometer.
To test whether YC-001 stabilizes rod opsin, opsin samples (2.5 µM) were incubated with or without 10 µM YC-001 for 15 min, followed by solubilization in 20 mM DDM. […] UV–visible spectra of these samples then were measured.

The next data set relates to C57BL/6 mice. Description: Toxicity by daily i.p. injections, survival, behavior and body weight. It counts as in vivo. Conditions: 200 and 100 mg kg^−1 bw daily i.p., day 14 to 38, vs DMSO. Here is the method:
To estimate the long-term toxicity of YC-001 in mice, we administered YC-001 to C57BL/6 mice by daily i.p. injections from Day 14 to 38 after birth with one of two doses, either 100 mg kg^−1 or 200 mg kg^−1 bw. Equivalent volumes of DMSO were injected into control groups. Body weights of treated mice were measured daily. Each dosage group contained three mice including males and females.

Details of data set [1]: method as in PubChem database, CID 2377702. Conditions: ref PubChem database, CID 2377702; cited from earlier work.
Another data set addresses T4, ovine COX-1 (Ovis aries, UniProt P05979).
T4 construct: purchased Abcam
Kind of data set: COX-1 activity assay (fluorometric). It counts as biochemical. Conditions: up to 80 µM. The procedure:
The effect of the compound YC-001 on COX-1 activity was evaluated using the COX-1 Inhibitor Screening Kit (Abcam, Cambridge, MA, USA) according to the manufacture’s protocol. Briefly, the assay is based on the fluorometric detection of Prostaglandin G2, the intermediate product generated by the COX-1 enzyme. COX reaction mix included ovine COX-1, COX probe, and COX cofactor was prepared in a 96-well plate. YC-001 working solutions were dissolved in DMSO, and then mixed with COX Reaction Mix to the final concentrations (80, 40, 20, 10, 5, 2.5, 1.25, 0.625, 0.312, 0.156, 0.078 and 0.039 µM). Equivalent volume of DMSO was used as vehicle control and SC560 was used as a positive control. All controls and samples were measured in triplicate. Then arachidonic acid was added into each well to initiate all the reactions at the same time. The fluorescence was measured at Ex/Em = 535/587 nm in a kinetic mode for 15 min at 25 °C. Five time points were chosen in the linear range of the plot and the corresponding values for the fluorescence were used to calculate the slope of the linear regression equation. Relative COX-1 activity was calculated as Eq. 5: RelativeCOX-1Activity(%)=Slopeofsample/Slopeofenzymecontrol×100 .

T2 sequence (P02699 whole entry): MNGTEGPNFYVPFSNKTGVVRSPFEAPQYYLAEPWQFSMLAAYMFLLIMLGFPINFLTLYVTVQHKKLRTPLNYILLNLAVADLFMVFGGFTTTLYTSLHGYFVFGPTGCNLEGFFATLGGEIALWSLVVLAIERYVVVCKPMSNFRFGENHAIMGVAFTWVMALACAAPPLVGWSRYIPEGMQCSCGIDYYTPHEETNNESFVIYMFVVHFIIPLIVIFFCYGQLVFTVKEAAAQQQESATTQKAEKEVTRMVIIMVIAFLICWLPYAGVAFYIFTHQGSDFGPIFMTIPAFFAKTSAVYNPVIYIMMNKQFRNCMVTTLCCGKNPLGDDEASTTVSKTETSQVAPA
T3 sequence (P02699 whole entry): as above
T1 sequence (P15409 whole entry): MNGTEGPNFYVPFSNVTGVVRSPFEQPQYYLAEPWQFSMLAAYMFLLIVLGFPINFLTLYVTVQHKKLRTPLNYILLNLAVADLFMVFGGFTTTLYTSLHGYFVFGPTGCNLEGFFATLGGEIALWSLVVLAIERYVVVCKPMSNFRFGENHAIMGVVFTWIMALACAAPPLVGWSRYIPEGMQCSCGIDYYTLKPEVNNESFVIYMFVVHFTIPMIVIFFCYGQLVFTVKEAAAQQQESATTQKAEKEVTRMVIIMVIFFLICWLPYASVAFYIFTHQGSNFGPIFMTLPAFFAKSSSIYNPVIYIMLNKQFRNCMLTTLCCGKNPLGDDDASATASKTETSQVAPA
T4 sequence (P05979 25-600): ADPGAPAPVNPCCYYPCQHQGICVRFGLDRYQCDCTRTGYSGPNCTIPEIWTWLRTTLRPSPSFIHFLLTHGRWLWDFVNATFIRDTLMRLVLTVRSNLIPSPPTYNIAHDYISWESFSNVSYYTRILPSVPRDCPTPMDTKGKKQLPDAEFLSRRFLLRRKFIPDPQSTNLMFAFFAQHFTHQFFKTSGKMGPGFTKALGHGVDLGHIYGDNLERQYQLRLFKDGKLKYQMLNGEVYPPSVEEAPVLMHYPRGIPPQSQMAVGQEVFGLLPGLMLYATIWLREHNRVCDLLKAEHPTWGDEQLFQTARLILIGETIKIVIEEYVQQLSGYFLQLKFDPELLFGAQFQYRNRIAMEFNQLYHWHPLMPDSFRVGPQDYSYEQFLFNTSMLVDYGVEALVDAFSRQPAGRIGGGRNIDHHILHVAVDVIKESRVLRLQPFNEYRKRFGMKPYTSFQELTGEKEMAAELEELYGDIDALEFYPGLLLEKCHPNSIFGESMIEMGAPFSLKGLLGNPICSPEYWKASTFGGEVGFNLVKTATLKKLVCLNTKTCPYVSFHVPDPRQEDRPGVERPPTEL

The term EC50 denotes the concentration at which the effect is half-maximal. With `CC1=C(/C=C/C(C)=C\C=C\C(C)=C\C=O)C(C)(C)CCC1` [9-cis-retinal, reference compound], the “fold increase in the EC50 of 9-cis-retinal” value at rod opsin (40 μM YC-001 co-treatment vs 9-cis-retinal alone) is 3 fold. Also, the EC50 on rod opsin (9-cis-retinal alone, under light, read-out: EC50, cAMP levels) came out at 0.0757 µM. For the same compound, the “initial rate of Gt activation, ln(kinitial)” value at bovine rod opsin (isorhodopsin regenerated by 40 µM 9-cis-retinal alone, upon illumination) is given as −4.6.
With `O=C(CCCCCN1C(=O)c2cccc3cccc(c23)C1=O)NO` [Scriptaid, reference compound], the “competition with 9-cis-retinal in the chromophore-binding pocket” value at bovine opsin is listed as “does not compete with 9-cis-retinal”.
By IC50 is commonly meant the concentration that gives 50% inhibition. Consider `O=C1OCC(c2ccc(Cl)s2)=C1c1cccs1` [YC-001], for which the EC50 was determined as 8.22 µM at rod opsin (YC-001 alone, dark or light, read-out: EC50, increase in cAMP levels) and 29.9 µM on rod opsin (YC-001 with 1 μM 9-cis-retinal, under light, read-out: EC50, increase in cAMP levels). Moreover, in the data set with C57BL/6 mice, the “behavioral or bw growth changes” value was “no obvious behavioral or bw growth changes”. In data set [1], the “activity in 8 other bioassays” value was “no known activities”. In addition, the “half-life of rod opsin aging at RT” value on bovine opsin (10 µM YC-001 vs opsin alone, 0-6 h) is given as “significantly longer half-life”. Also, at bovine opsin, the “competition with 9-cis-retinal in the chromophore-binding pocket” value is recorded as “competing with 9-cis-retinal in a short timeframe”. Moreover, the “total amount of regenerated isorhodopsin pigment at the end of the reaction” value at bovine opsin (increasing YC-001, sequential 9-cis-retinal) is recorded as “did not affect”. Also, on bovine opsin (opsin/isorhodopsin purification after treatment), the “reversibility of interaction with opsin” value is “reversible”. The 50% inhibitory concentration (IC50) on bovine opsin (read-out: IC50, regenerated isorhodopsin) stood at 11.4 µM. For the same compound, the “initial rate of Gt activation, ln(kinitial)” value on bovine rod opsin (40 µM compound, constitutive activity of opsin, DMSO control −5.3) was −6.1; at bovine rod opsin (co-treated with 40 µM 9-cis-retinal and 40 µM YC-001, upon illumination), −4.9. The COX-1 enzymatic activity entry at ovine COX-1 is “did not see changes”.
